# Measurements as given in ChEMBL document CHEMBL4325881, “Facile synthesis of 2-aryl 5-hydroxy benzo[d]oxazoles and their in vitro anti-proliferative effects on various cancer cell lines” (Bioorg Med Chem Lett, 2018).
# Experiments:
# A549 = experiment: Cytotoxicity against human A549 cells assessed as reduction in cell viability after 48 hrs by MTT assay; type: functional, cell-based; settings: A549, 48 h
# [1] = Cytotoxicity against human […] cells assessed as reduction in cell viability after 48 hrs by MTT assay; type: functional, cell-based
# MDA-MB-231 = experiment: Cytotoxicity against human MDA-MB-231 cells assessed as reduction in cell viability after 48 hrs by MTT assay; type: functional, cell-based; settings: MDA-MB-231, 48 h
# HeLa = experiment: Cytotoxicity against human HeLa cells assessed as reduction in cell viability after 48 hrs by MTT assay; type: functional, cell-based
# HepG2 = experiment: Cytotoxicity against human HepG2 cells assessed as reduction in cell viability after 48 hrs by MTT assay; type: functional, cell-based; settings: HepG2, 48 h
# HaCaT = experiment: Cytotoxicity against human HaCaT cells assessed as reduction in cell viability after 48 hrs by MTT assay; type: cell-based
SMILES,IC50 (A549) [µM],IC50 [1] [µM],IC50 (MDA-MB-231) [µM],IC50 (HeLa) [µM],IC50 (HepG2) [µM],IC50 (HaCaT) [µM]
CC(=O)c1c(O)ccc2oc(-c3ccccc3)nc12,> 30,> 30,> 30,> 30,> 30,> 30
COc1cccc2c1C(=O)c1c(O)c3c(c(O)c1C2=O)C[C@@](O)(C(=O)CO)C[C@@H]3O[C@H]1C[C@H](N)[C@H](O)[C@H](C)O1 [DOXORUBICIN],0.34,1.57,,0.11,0.52,0.52
COc1ccccc1-c1nc2c(C=O)c(O)ccc2o1,2.8,10.4,5.95,8.08,10.8,8.38
O=Cc1c(O)ccc2oc(-c3ccco3)nc12,> 30,> 30,> 30,> 30,> 30,> 30
O=Cc1c(O)ccc2oc(-c3ccccc3Cl)nc12,7.68,14,5.66,14.1,10.5,12.1
